# Measured values from the supplement of paper PMC10307832.
# Experiments:
# Test in all cases: relative viability (nuclei count vs DMSO), 5 days (fraction); higher = more cells survive
# QS11 + Navitoclax = compound: C1CC2=C(C1)C=C(C=C2)OC3=NC(=C4C(=N3)N(C=N4)CC5=CC=C(C=C5)C6=CC=CC=C6)N[C@@H](CC7=CC=CC=C7)CO [QS11] + CC1(C)CCC(c2ccc(Cl)cc2)=C(CN2CCN(c3ccc(C(=O)NS(=O)(=O)c4ccc(N[C@H](CCN5CCOCC5)CSc5ccccc5)c(S(=O)(=O)C(F)(F)F)c4)cc3)CC2)C1 [Navitoclax] (partner 0.5 µM)
# Method in brief: (§1)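 Five library-drug doses in √10 steps were combined with a fixed anchor-drug dose, or a single drug was given alone, by pin tool to lung cancer cell lines in 1536-well plates the day after seeding. Nuclei were stained and counted after 5 days. Relative viability is the nuclei count in treated wells over that in vehicle wells, taken as the median of duplicate plates.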
# [1] = compound: C[As](C)SC[C@H](NC(=O)CC[C@H](N)C(=O)O)C(=O)NCC(=O)O [Darinaparsin] + CC(=O)Nc1cccc(-n2c(=O)n(C3CC3)c(=O)c3c(Nc4ccc(I)cc4F)n(C)c(=O)c(C)c32)c1 [Trametinib] (partner 0.02 µM)
# Method in brief: as §1
# AZ628 + OSI-027 = compound: CC1=C(C=C(C=C1)NC(=O)C2=CC(=CC=C2)C(C)(C)C#N)NC3=CC4=C(C=C3)N=CN(C4=O)C [AZ628] + COc1cccc2cc(-c3nc([C@H]4CC[C@H](C(=O)O)CC4)n4ncnc(N)c34)[nH]c12 [OSI-027] (partner 0.5 µM)
# Method in brief: as §1
# [2] = compound: C[As](C)SC[C@H](NC(=O)CC[C@H](N)C(=O)O)C(=O)NCC(=O)O [Darinaparsin] + C[C@]1(O)C[C@@H](c2nc(-c3ccc4ccc(-c5ccccc5)nc4c3)c3c(N)nccn32)C1 [Linsitinib] (partner 1 µM)
# Method in brief: as §1
Cell Line,relative viability (QS11 + Navitoclax; first compound 0.08 µM),relative viability (QS11 + Navitoclax; first compound 0.253 µM),relative viability (QS11 + Navitoclax; first compound 0.8 µM),relative viability (QS11 + Navitoclax; first compound 2.53 µM),relative viability (QS11 + Navitoclax; first compound 8 µM),relative viability ([1]; first compound 0.08 µM),relative viability ([1]; first compound 0.8 µM),relative viability ([1]; first compound 2.53 µM),relative viability ([1]; first compound 8 µM),relative viability (AZ628 + OSI-027; first compound 0.08 µM),relative viability (AZ628 + OSI-027; first compound 0.253 µM),relative viability (AZ628 + OSI-027; first compound 0.8 µM),relative viability (AZ628 + OSI-027; first compound 2.53 µM),relative viability (AZ628 + OSI-027; first compound 8 µM),relative viability ([2]; first compound 0.08 µM),relative viability ([2]; first compound 0.8 µM),relative viability ([2]; first compound 2.53 µM),relative viability ([2]; first compound 8 µM)
NCI-H727,0.389,0.346,0.47,0.301,0.328,0.372,0.397,0.381,0.383,0.626,0.402,0.328,0.397,0.338,0.3,0.225,0.319,0.354
A-427,0.992,1.02,,1.02,1.01,0.721,0.663,0.758,0.796,0.336,0.286,0.236,0.197,0.169,1.2,1.09,1.13,1.12
SK-MES-1,1.43,1.25,1.21,1.45,1.37,0.558,0.521,0.551,0.61,0.599,0.593,0.653,0.572,0.297,1.15,0.99,0.812,1.25
NCI-H1623,,,,,,,,,,0.452,0.388,0.245,0.36,0.225,,,,
HCC-827,0.987,1.01,0.833,0.944,0.899,0.578,0.502,0.566,0.508,0.741,0.82,0.796,0.703,0.418,1.01,0.93,0.965,1.09
EKVX,0.957,0.863,,0.891,1.1,0.339,0.33,0.344,0.333,0.715,0.673,0.804,0.764,0.572,1.33,0.902,0.969,1.2
SW 900,,,,,,0.73,,0.813,0.985,0.61,0.566,0.501,0.345,0.474,,,,
NCI-H661,,,,,,0.646,0.618,0.532,0.677,0.631,0.617,0.513,0.593,0.47,0.558,0.569,0.526,0.593
NCI-H1975,1.09,1.2,1.02,1.59,1.26,0.35,0.382,0.328,0.307,0.726,0.619,0.483,0.503,0.373,1.11,1.01,0.944,1.26
